Experimental data as given in article PMC4501059, “Responding to the challenge of untreatable gonorrhea: ETX0914, a first-in-class agent with a distinct mechanism-of-action against bacterial Type II topoisomerases” (Scientific Reports, 2015).
Values after ≈ are worked out from the molar mass of the structure shown. Like-named read-outs stand apart in the source and are kept apart here.

Columns and labels:
[1] = tested on: resistant isolates of S. aureus, S. pneumoniae and N. gonorrhoeae; assay type: cell-based
Haemophilus influenzae = tested on: Haemophilus influenzae; design: method as in ref 2 (supplement); conditions: 352 tested; ref 2 (supplement); cited from earlier work
mouse lymphoma cells = assay: in vitro mouse micronucleus aberration assay (MMA); assay type: cell-based; conditions: in vitro
Description: In vitro toxicology. Experiments for assessing micronuclei in mouse lymphoma cells^19 myeloid cytotoxicity^20 and erythroid cytotoxicity^21 were performed as described previously.

[2] = 28 day oral toxicology study, rat; assay type: in vivo, Han Wistar rat; conditions: for NOAEL at 28 days: in vivo
Description: The following dosing formulation for rat and dog 28 day PO studies was used: a 100 mg/mL stock of ETX0914 in 5% dextrose and 2.5M meglumine adjusted to pH 9 using 5M HCl or 2.5M meglumine. The dosing formulations were diluted as required with phosphate buffered saline and dispensed daily. […] A control group of 10 male and 10 females were given the vehicle only. An additional 3 animals per sex were allocated to each group for toxicokinetics wherein blood samples (1 mL) from the tail vein pre-trial and on Day 27 were collected. […] Animals were terminated by exposure to CO2. The following were assessed: clinical observations, body weight, food consumption, body temperature, hematology, plasma chemistry, toxicokinetics and gross and microscopic pathology.

[3] = hepatocyte intrinsic clearance; assay type: in vitro ADME; conditions: male, Beagle, dog hepatocytes
Source text: Supplement srep11827-s1.doc, table 4 | column: Beagle dog (male)

N. gonorrhoeae = assay: clinical PK/PD magnitude, gonococcal infection
S. aureus ARC516 = assay: MIC (CLSI broth microdilution); assay type: cell-based

SMILES: C[C@@H]1CN2c3c(cc4c(N5C(=O)OC[C@@H]5C)noc4c3F)CC3(C(=O)NC(=O)NC3=O)[C@H]2[C@H](C)O1 [ETX0914]
- susceptibility of GyrB\ParE mutants with reduced novobiocin susceptibility ([1]; S. aureus ARC3445, S. pneumoniae ARC2800): fully susceptible
- cross-resistance of NBTI resistant S. aureus mutant ARC2796 ([1]; derived from ARC516): not cross-resistant
- MIC90 (Haemophilus influenzae): 0.5^2 µg/ml
- MIC Range (Haemophilus influenzae): 0.03 to 2.0 µg/mL
- Micronucleus NOEL (mouse lymphoma cells): > 400 µM
- Salient Pathology Findings ([2]; 1 month rat (po), 500 mg/kg/day): Reduced activity, pilo-erection, irregular respiration Seminal vesicle: secretory depletion, atrophy Epididymis: cellular debris (minimal) Spleen: increased congestion/haematopoiesis Cecum & rectum: mucosal hyperplasia
- Salient Pathology Findings ([2]; 1 month rat (po), 1000 mg/kg/day): As above & testes tubular degeneration partially reversible 3 months post dosing
- AUC(0-t) ([2]; both sexes, Han Wistar, blood, oral, rat, 200 mg/kg, day 27, read-out: AUC24h at NOAEL): 1070 µg·h/mL
- Cmax ([2]; both sexes, Han Wistar, blood, oral, rat, 200 mg/kg, day 27, read-out: Cmax at NOAEL): 107 µg/mL
- NOAEL at 28 days ([2]; both sexes, Han Wistar, oral, rat, 28 days): 200 mg/kg
- NOAEL at 28 days ([2]; both sexes, Han Wistar, 1 month rat (po)): 200 mg/kg/day
- AUC ([2]; both sexes, Han Wistar, plasma, 1 month rat (po), 200 mg/kg/day): 1100 ± 130 µg·h/mL
- Cmax ([2]; both sexes, Han Wistar, plasma, 1 month rat (po), 200 mg/kg/day, read-out: Cmax (±SD)): 110 ± 30 µg/mL
- AUC ([2]; both sexes, Han Wistar, plasma, 1 month rat (po), 500 mg/kg/day): 2460 ± 470 µg·h/mL
- Cmax ([2]; both sexes, Han Wistar, plasma, 1 month rat (po), 500 mg/kg/day, read-out: Cmax (±SD)): 170 ± 30 µg/mL
- AUC ([2]; both sexes, Han Wistar, plasma, 1 month rat (po), 1000 mg/kg/day): 3820 ± 650 µg·h/mL
- Cmax ([2]; both sexes, Han Wistar, plasma, 1 month rat (po), 1000 mg/kg/day, read-out: Cmax (±SD)): 260 ± 55 µg/mL
- margin of fAUC at rat NOAEL to efficacious fAUC in mouse thigh model ([2]; both, Han Wistar, rat, plasma, oral, 200 mg/kg): 13 fold
- haematology or platelet count at the NOAEL ([2]; rat): no significant changes in haematology or platelet count
- tolerated dose ([2]; rat, oral, 28 days): up to 1000 mg/kg/day
- hepatocyte CLint at 1 µM [3]: 3.8 µL/min/1e6 cells
- predicted efficacious mean AUC in humans (N. gonorrhoeae): 49 µg·h/mL
- MIC: S. aureus ARC516 (S. aureus ARC516): 0.125 µg/mL (≈ 0.256 µM)
- MIC (S. aureus ARC516; Staphylococcus aureus, MSSA, read-out: Modal MIC): 0.0625 µg/mL (≈ 0.128 µM)
